Measured values from paper PMC9127112, “Opening opportunities for Kd determination and screening of MHC peptide complexes” (Communications Biology, 2022).
Values joined by “and” are separate entries in the source; they are usually repeats but may differ in a detail not shown here. Equal entries are not always repeated. Ends that are not written are not given here. Peptide text beside a SMILES is read from it.

Legend:
[1] = target: T1, dsA2: HLA-A*02:01(Y84C/A139C) disulfide mutant heavy chain / β2m complex (Homo sapiens, UniProt P04439, A163C/D140Y/D185E/D98H/E176V/E277Q/G131W/G231S/I119V/I121R/I166T/I218V/L300P/L318F/N151K/N90K/P208A/P217A/Q86G/Q94H/R138H/R169H/T345S/Y108C); test: biochemical; assay type: binding
T1 construct: made in house; host or cells: Escherichia coli (pET3a)

[2] = target: T2, dsA2: HLA-A*02:01(Y84C/A139C) disulfide mutant heavy chain / β2m complex (Homo sapiens, UniProt P04439, D140Y/D185E/D98H/E176V/E277Q/G131W/G231S/I119V/I121R/I166T/I218V/L300P/L318F/N151K/N90K/P208A/P217A/Q86G/Q94H/R138H/R169H/T345S/A163C/Y108C); test: native mass spectrometry (nMS) of peptide binding to empty dsA2; settings: for AUC dsA2 (empty) / AUC dsA2/erucamide / AUC dsA2/pep / AUC dsA2/pep/pep: cone 150 V, ratio 1:5, raw data, mean of >=3 measurements;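 for all read-outs here: native nano-electrospray MS on Q-Tof II in positive mode, dsA2 at 10 µM with peptide 50–200 µM, incubated ≥10 min on ice, argon collision gas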
T2 construct: made in house; host or cells: Escherichia coli (pET3a)

[3] = target: T1, dsA2: HLA-A*02:01(Y84C/A139C) disulfide mutant heavy chain / β2m complex; test: as above
[4] = target: empty disulfide-stabilized HLA-A*02:01(Y84C/A139C) in complex with beta-2 microglobulin (human); test: isothermal analysis of nanoscale differential scanning fluorimetry (iDSF)
[5] = target: empty disulfide-stabilized HLA-A*02:01(Y84C/A139C) in complex with beta-2 microglobulin (human); test: native MS
[6] = target: empty disulfide-stabilized HLA-A*02:01(Y84C/A139C) complex of heavy chain and beta-2 microglobulin (human); test: native MS
[7] = target: empty disulfide-stabilized HLA-A*02:01(Y84C/A139C) complex of heavy chain and beta-2 microglobulin (human); test: nanoscale differential scanning fluorimetry (nDSF, thermal stabilisation)
[8] = target: T2, dsA2: HLA-A*02:01(Y84C/A139C) disulfide mutant heavy chain / β2m complex; test: nanoscale differential scanning fluorimetry (nDSF) thermal stability; assay type: binding; settings: for Tm: dsA2 2 µM, at least two independent measurements

| Compound | Kd [1] [µM] | AUC dsA2 (empty) ([2]; acceleration voltage 10 V) | AUC dsA2/erucamide ([2]; acceleration voltage 10 V) | AUC dsA2/pep ([2]; acceleration voltage 10 V) | AUC dsA2/pep/pep ([2]; acceleration voltage 10 V) | AUC dsA2 (empty) ([2]; acceleration voltage 25 V) [%] | AUC dsA2/erucamide ([2]; acceleration voltage 25 V) [%] | AUC dsA2/pep ([2]; acceleration voltage 25 V) [%] | AUC dsA2/pep/pep ([2]; acceleration voltage 25 V) [%] | AUC dsA2 (empty) ([2]; acceleration voltage 50 V) [%] | AUC dsA2/erucamide ([2]; acceleration voltage 50 V) [%] | AUC dsA2/pep ([2]; acceleration voltage 50 V) [%] | AUC dsA2/pep/pep ([2]; acceleration voltage 50 V) [%] | Kd [4] [µM] | other results |
| --- | --- | --- | --- | --- | --- | --- | --- | --- | --- | --- | --- | --- | --- | --- | --- |
| CC(C)C[C@H](NC(=O)[C@@H](N)CC(N)=O)C(=O)N[C@H](C(=O)N1CCC[C@H]1C(=O)O)C(C)C [NP4] (H-NLVP-OH) | 50 | 55% | 33.8% | 11% | 0.6% | 57.8 | 31.1 | 10.4 | 0.69 | 92.4 | 4.3 | 2.6 | 0.8 | – | Kd [3]: 350 µM and 100 µM |
| CC(C)[C@H](N)C(=O)N[C@@H](C)C(=O)N[C@H](C(=O)N[C@H](C(=O)O)C(C)C)[C@@H](C)O [VV4] (H-VATV-OH) | 50 | 68% | 18.093% | 14% | 0% | 68 | 17.6 | 14 | 0 | 92 | 4.0 | 4.1 | 0 | – | – |
| CCCCCCCC/C=C\CCCCCCCCCCCC(N)=O [erucamide, (Z)-docos-13-enamide] | – | – | – | – | – | – | – | – | – | – | – | – | – | – | occupancy of dsA2 with erucamide ([2]; no peptide, linear extrapolation to cone voltage <=48 V (experimentally unfeasible)): 100% |
| Ac-NV9-NH2, NV9 with acetylated N-terminus and amidated C-terminus (peptide) | – | – | – | – | – | – | – | – | – | – | – | – | – | 4 | Kd [5]: 80 µM |
| Ac-NV9-NH2, NV9 with an acetylated N-terminus and an amidated C-terminus (peptide) | – | – | – | – | – | – | – | – | – | – | – | – | – | – | Kd [6]: 7 µM; ∆Tm [7]: 2.7 K |
| GLGGGGGGV [GV9] | – | 52% | 4.3% | 43 ± 2% and 43% | 1.5 ± 0.4% and 1.5% | 50 | 5 | 43 | 2.2 | 62 | 1.7 | 35 | 1.1 | – | Kd ([1]; dsA2 2.2 µM, 20 mM Tris pH 8, 150 mM NaCl, twofold serial dilution, 11 concentrations, two independent measurements, values marked * (below 200 nM) not reliable, read-out: Kd,iDSF): 0.36 µM; Kd ([3]; read-out: Kd,high): 35 µM; Kd ([3]; read-out: Kd,low): 0.5 µM |
| LV8 (LVPMVATV), truncated NV9 variant (peptide) | – | – | – | – | – | – | – | – | – | – | – | – | – | 0.008 | Kd [5]: 17 µM |
| LV8, NV9 without the N-terminal asparagine (peptide) | – | – | – | – | – | – | – | – | – | – | – | – | – | – | Kd [6]: 0.07 µM; ∆Tm [7]: 11.6 K |
| LVPMVATV [LV8] | 0.008 | 42% | 1.7% | 54% | 2.8% | 40 | 1.5 | 54 | 3.9 | 53 | 0.4 | 45 | 1.6 | – | – |
| MV5 (MVATV), truncated NV9 variant (peptide) | – | – | – | – | – | – | – | – | – | – | – | – | – | 1.6 | – |
| MVATV [MV5] | 1.6 | 64% | 10.4% | 23% | 3.2% | 63 | 10.4 | 23 | 3.7 | 80 | 3.3 | 15 | 1.5 | – | Kd ([3]; Kd,high): 110 µM; Kd ([3]; Kd,low): 3 µM |
| NA7 (NLVPMVA), truncated NV9 variant (peptide) | – | – | – | – | – | – | – | – | – | – | – | – | – | 3.6 | – |
| NLVPM [NM5] | 11 | 62% | 19% | 17.9% | 1.0% | 64 | 17 | 18.0 | 1.2 | 90.3 | 1.3 | 8.1 | 0.3 | – | Kd ([3]; Kd,high): 180 µM; Kd ([3]; Kd,low): 15 µM |
| NLVPMV [NV6] | 9 | 66% | 24% | 10% | 0.5% | 66 | 22 | 11 | 0.69 | 91.2 | 2.9 | 4.1 | 1.9 | – | Kd ([3]; Kd,high): 380 µM; Kd ([3]; Kd,low): 30 µM |
| NLVPMVA [NA7] | 3.6 | 75% | 8% | 16% | 0.8% | 68 | 11 | 19 | 1.4 | 86 | 1.8 | 12 | 0.5 | – | Kd ([3]; Kd,high): 210 µM; Kd ([3]; Kd,low): 2 µM |
| NLVPMVAT [NT8] | 2.6 | 47.3% | 24% | 28% | 0.6% | 50 | 21 | 28.2 | 1 | 75 | 1.6 | 23 | 0.2 | – | Kd [3]: 92 µM and 30 µM |
| NM5 (NLVPM), truncated NV9 variant (peptide) | – | – | – | – | – | – | – | – | – | – | – | – | – | 11 | – |
| NP4 (NLVP), truncated NV9 variant (peptide) | – | – | – | – | – | – | – | – | – | – | – | – | – | 50 | Kd [5]: 350 µM and 100 µM |
| NT8 (NLVPMVAT), truncated NV9 variant (peptide) | – | – | – | – | – | – | – | – | – | – | – | – | – | 2.6 | Kd [5]: 92 µM |
| NT8, NV9 without the C-terminal valine (peptide) | – | – | – | – | – | – | – | – | – | – | – | – | – | – | Kd [6]: 30 µM |
| NV6 (NLVPMV), truncated NV9 variant (peptide) | – | – | – | – | – | – | – | – | – | – | – | – | – | 9 | – |
| PMVATV [PV6] | 15 | 68% | 19% | 12% | 0.5% | 68 | 19 | 13 | 0.5 | 90 | 5 | 5 | 0.1 | – | Kd ([3]; Kd,high): 300 µM; Kd ([3]; Kd,low): 15 µM |
| PV6 (PMVATV), truncated NV9 variant (peptide) | – | – | – | – | – | – | – | – | – | – | – | – | – | 15 | – |
| VPMVATV [VV7] | 7.8 | 61.8% | 19% | 17% | 1.7% | 62 | 20.2 | 17 | 1.16 | 96 | 1.3 | 3 | 0 | – | Kd ([3]; Kd,high): 180 µM; Kd ([3]; Kd,low): 15 µM |
| VV4 (VATV), truncated NV9 variant (peptide) | – | – | – | – | – | – | – | – | – | – | – | – | – | 50 | – |
| VV7 (VPMVATV), truncated NV9 variant (peptide) | – | – | – | – | – | – | – | – | – | – | – | – | – | 7.8 | – |
| YPNVNIHNF [YF9, reference compound] | – | 56 ± 3% and 56% | 39 ± 2% and 39% | 4 ± 2% and 4% | 0% | 51 | 44 | 5 | 0 | 95 | 2 | 5 | 0 | – | Tm ([8]; peptide 0.2 µM): 36.1 °C; Tm ([8]; peptide 2 µM): 36.1 °C; Tm ([8]; peptide 20 µM): 36.2 °C; ∆Tm of dsA2 by peptide binding ([8]; protein-peptide ratio 1:10 (dsA2 2 µM), relative to empty dsA2 Tm 35.7 ± 0.6 °C, citrate phosphate buffer pH 7.6, duplicates): 1 ± 1 K |
